US12606827B2, “Compounds for treatment of osteoarthritis” (Altos Labs, Inc., priority 2020, dated 2026)

System: Healthy Articular Chondrocytes (HACs)
Assay: LPS-stimulated intracellular ROS (CM-H2DCFDA) in healthy chondrocytes
Type: cell-based, human
Conditions: 0.1 μM and 1 μM, 1 h pretreatment, then LPS 1 μg/ml for 48 h
Protocol: Human articular chondrocytes (HAC) were transiently transfected with a siRNA control or targeting USP16 as described in Example 2. 36 hours post knockdown, cells were stimulated with LPS 1 μg/ml) for 48 h. Healthy Articular Chondrocytes (HACs) were pretreated with 0.1- and 1-μM Compound 2 for 1 h and then stimulated with LPS (1 μg/ml) for 48 h. At the end of the treatment, fluorescent dye, CM-H2DCFDA (final concentration 10 μl of 20 μM) was added to cells and incubated for 30 min in CO2 incubator to measure the intracellular ROS produced in these cells. After incubation, the cells were washed with cold-phosphate buffered saline and the fluorescence intensity of the stained cells was measured at an excitation and emission wavelength of 485 nm and 530 nm respectively. Fluorescence intensity was then normalized for cell number using Hoechst staining.
Chondrocytes were pretreated with 0.1- and 1-μM CA for 1 h and then stimulated with LPS (1 μg/m)l for 48 h. For siRNA experiment, LPS stimulation was performed 36 hours after knockdown for additional 48 h. […] After incubation, the cells were washed with cold-phosphate buffered saline and the fluorescence intensity of the stained cells was measured at an excitation and emission wavelength of 485 nm and 530 nm respectively. Fluorescence intensity was then normalized for cell number using Hoechst staining.

## C#Cc1ccc(CNC(=O)c2cc(C(=O)CCl)cn2C)cc1 [Compound 2]
  inflammation-induced oxidative stress (intracellular ROS): reduced inflammation-induced oxidative stress in healthy chondrocytes in a dose-dependent manner
